From patent US20230271950A1, “ANTIBACTERIAL PICOLINAMIDE COMPOUNDS” (University of Notre Dame Du Lac, priority 2020, published 2023)
Like-named read-outs stand apart in the source and are kept apart here.

Columns and labels:
C. difficile = test: MIC by broth microdilution against C. difficile strains; assay type: cell-based, Clostridioides difficile
Veillonella sp. HM-49 = test: MIC against gut bacterium Veillonella sp.; assay type: cell-based
Bifidobacterium longum = test: MIC against gut bacterium Bifidobacterium longum; assay type: cell-based; conditions: Bifidobacterium longum, Bifidobacterium longum strain HM-846, read-out: MIC
HeLa cells = test: XTT cytotoxicity assay with HeLa cells; assay type: cell-based; conditions: Homo sapiens
Protocol: XTT assay. Cytotoxicity assays were performed in triplicate against HeLa cells (ATCC CCL-2). The IC50 values were calculated by nonlinear regression with GraphPad Prism 5 (San Diego, Calif.).
XTT assay. XTT assays were performed with HeLa cells (ATCC CCL-2) in triplicate, as previously described (Lancet 2008, 371, 1486). IC50 values were determined by nonlinear regression using GraphPad Prism 5 (San Diego, Calif.).

Bacteroides fragilis = test: MIC against gut bacterium Bacteroides fragilis; assay type: cell-based; conditions: Bacteroides fragilis, Bacteroides fragilis strain HM-709, read-out: MIC
Lactobacillus reuteri = test: MIC against gut bacterium Lactobacillus reuteri; assay type: cell-based
Eubacterium sp. = test: MIC against gut bacterium Eubacterium sp.; assay type: cell-based; conditions: Eubacterium, Eubacterium sp. strain HM-178, read-out: MIC
Corynebacterium spp. = test: MIC against gut bacterium Corynebacterium spp.; assay type: cell-based; conditions: Corynebacterium, Corynebacterium spp. strain HM-784
MRSA (NRS70, NRS119) = test: MIC against MRSA strains; assay type: cell-based, Staphylococcus aureus; conditions: for MIC: Staphylococcus aureus, read-out: MIC
S. aureus ATCC29213 = test: MIC against MSSA; assay type: cell-based, Staphylococcus aureus; conditions: Staphylococcus aureus
Fusobacterium nucleatum = test: MIC against gut bacterium Fusobacterium nucleatum; assay type: cell-based; conditions: Fusobacterium nucleatum, Fusobacterium nucleatum strain HM-992, read-out: MIC

`O=C(O)c1ccc2oc(NC(=O)c3cc(Oc4cccc(OC(F)(F)F)c4)ccn3)nc2c1` [Compound 1, Sodium 2-(4-(3-(trifluoromethoxy)phenoxy)picolinamido)benzo[d]oxazole-5-carboxylate] showed an MIC (C. difficile; C. difficile NR-49329, Table 9) of 0.125 µg/mL, an MIC (C. difficile; C. difficile, Table 8) of 0.125 µg/mL and an MIC (C. difficile; Clostridioides difficile) of 0.125 µg/mL. The MIC (C. difficile; Clostridioides difficile, ATCC43255) was 0.125 µg/mL, the MIC (C. difficile; Clostridioides difficile, ATCC43255, C. difficile ATCC 43255, read-out: MIC against C. difficile) was 0.12 µg/mL and the MIC (C. difficile; Clostridioides difficile, ATCC43598) was 0.125 µg/mL. It also gave an MIC (C. difficile; Clostridioides difficile, BAA1801) of 0.125 µg/mL, an MIC (C. difficile; Clostridioides difficile, BAA1803, C. difficile BAA-1803, Table 7, read-out: MIC) of 0.0625 µg/mL and an MIC (C. difficile; Clostridioides difficile, BAA1803, C. difficile BAA-1803, Table 9, read-out: MIC) of 0.06 µg/mL. The MIC (C. difficile; Clostridioides difficile, BAA1804) was 0.125 µg/mL, the MIC (C. difficile; Clostridioides difficile, BAA1812) was 0.125 µg/mL and the MIC (C. difficile; Clostridioides difficile, BAA1814) was 0.125 µg/mL. It also gave an MIC (C. difficile; Clostridioides difficile, BAA1870) of 0.125 µg/mL, an MIC (C. difficile; Clostridioides difficile, C. difficile 23828 (FR, fidaxomicin-resistant), Table 7, read-out: MIC) of 0.25 µg/mL and an MIC (C. difficile; Clostridioides difficile, C. difficile 23828, clinical isolate resistant to FDX, Table 1, read-out: MIC) of 0.25 µg/mL. It also gave an MIC (C. difficile; Clostridioides difficile, C. difficile 23828, Table 9, read-out: MIC) of 0.25 µg/mL, an MIC (C. difficile; Clostridioides difficile, C. difficile 24531 (VR, vancomycin-resistant), Table 7, read-out: MIC) of 0.25 µg/mL and an MIC (C. difficile; Clostridioides difficile, C. difficile 24531, Table 9, read-out: MIC) of 0.25 µg/mL. The MIC (C. difficile; Clostridioides difficile, C. difficile 26675 (MR, metronidazole-resistant), Table 7, read-out: MIC) was 0.25 µg/mL, the MIC (C. difficile; Clostridioides difficile, C. difficile 26675, clinical isolate resistant to MTZ, Table 1, read-out: MIC) was 0.25 µg/mL and the MIC (C. difficile; Clostridioides difficile, C. difficile 26675, Table 9, read-out: MIC) was 0.25 µg/mL. The MIC (C. difficile; Clostridioides difficile, C. difficile HM-88, Table 9, read-out: MIC) was 0.25 µg/mL, the MIC (C. difficile; Clostridioides difficile, C. difficile NR49294, Table 7, read-out: MIC) was 0.0625 µg/mL and the MIC (C. difficile; Clostridioides difficile, C. difficile NR49294, Table 9, read-out: MIC) was 0.06 µg/mL. For the same compound, the MIC (C. difficile; Clostridioides difficile, C. difficile NR49302, Table 7, read-out: MIC) was 0.0625 µg/mL, the MIC (C. difficile; Clostridioides difficile, C. difficile NR49302, Table 9, read-out: MIC) was 0.06 µg/mL and the MIC (C. difficile; Clostridioides difficile, C. difficile NR49305, Table 7, read-out: MIC) was 0.0625 µg/mL. It also gave an MIC (C. difficile; Clostridioides difficile, C. difficile NR49305, Table 9, read-out: MIC) of 0.06 µg/mL, an MIC (C. difficile; Clostridioides difficile, C. difficile NR49318, Table 7, read-out: MIC) of 0.06 µg/mL and an MIC (C. difficile; Clostridioides difficile, C. difficile NR49318, Table 9, read-out: MIC) of 0.06 µg/mL. It also gave an MIC (C. difficile; Clostridioides difficile, C. difficile NR-13429, Table 9, read-out: MIC) of 0.06 µg/mL, an MIC (C. difficile; Clostridioides difficile, C. difficile NR-13431, Table 9, read-out: MIC) of 0.06 µg/mL and an MIC (C. difficile; Clostridioides difficile, C. difficile NR-13433, Table 9, read-out: MIC) of 0.25 µg/mL. For the same compound, the MIC (C. difficile; Clostridioides difficile, C. difficile NR-32885, Table 9, read-out: MIC) was 0.25 µg/mL, the MIC (C. difficile; Clostridioides difficile, C. difficile NR-32890, Table 9, read-out: MIC) was 0.25 µg/mL and the MIC (C. difficile; Clostridioides difficile, C. difficile NR-32891, Table 9, read-out: MIC) was 0.25 µg/mL. It also gave an MIC (C. difficile; Clostridioides difficile, C. difficile NR-32895, Table 9, read-out: MIC) of 0.25 µg/mL, an MIC (C. difficile; Clostridioides difficile, C. difficile NR-32896, Table 9, read-out: MIC) of 0.25 µg/mL and an MIC (C. difficile; Clostridioides difficile, C. difficile NR-32903, Table 9, read-out: MIC) of 0.25 µg/mL. The MIC (C. difficile; Clostridioides difficile, C. difficile NR-49281, Table 9, read-out: MIC) was 0.06 µg/mL, the MIC (C. difficile; Clostridioides difficile, C. difficile NR-49283, Table 9, read-out: MIC) was 0.06 µg/mL and the MIC (C. difficile; Clostridioides difficile, C. difficile NR-49284, Table 9, read-out: MIC) was 0.25 µg/mL. It also gave an MIC (C. difficile; Clostridioides difficile, C. difficile NR-49285, Table 9, read-out: MIC) of 0.03 µg/mL, an MIC (C. difficile; Clostridioides difficile, C. difficile NR-49287, Table 9, read-out: MIC) of 0.06 µg/mL and an MIC (C. difficile; Clostridioides difficile, C. difficile NR-49289, Table 9, read-out: MIC) of 0.25 µg/mL. The MIC (C. difficile; Clostridioides difficile, C. difficile NR-49297, Table 9, read-out: MIC) was 0.06 µg/mL, the MIC (C. difficile; Clostridioides difficile, C. difficile NR-49298, Table 9, read-out: MIC) was 0.06 µg/mL and the MIC (C. difficile; Clostridioides difficile, C. difficile NR-49304, Table 9, read-out: MIC) was 0.25 µg/mL. It also gave an MIC (C. difficile; Clostridioides difficile, C. difficile NR-49306, Table 9, read-out: MIC) of 0.25 µg/mL, an MIC (C. difficile; Clostridioides difficile, C. difficile NR-49311, Table 9, read-out: MIC) of 0.25 µg/mL and an MIC (C. difficile; Clostridioides difficile, C. difficile NR-49313, Table 9, read-out: MIC) of 0.06 µg/mL. It also gave an MIC (C. difficile; Clostridioides difficile, C. difficile NR-49321, Table 9, read-out: MIC) of 0.25 µg/mL, an MIC (C. difficile; Clostridioides difficile, C. difficile NR-49327, Table 9, read-out: MIC) of 0.25 µg/mL and an MIC (C. difficile; Clostridioides difficile, C. difficile NR-49328, Table 9, read-out: MIC) of 0.06 µg/mL. The MIC50 (C. difficile; Clostridioides difficile, 101 C. difficile strains) was 0.12 µg/mL, the MIC90 (C. difficile; Clostridioides difficile, 101 C. difficile strains, read-out: MIC90 (101 strains)) was 0.25 µg/mL and the Selectivity (C. difficile; MIC MRSA NRS70/MIC C. difficile ATCC43255, Table 7) was 128. It also gave a Selectivity (C. difficile; Table 8) of 128, an MIC (Veillonella sp. HM-49; SP.HM49, Veillonella sp. HM-49, Table 1, read-out: MIC) of 16 µg/mL and an MIC (Veillonella sp. HM-49; Veillonella sp. strain HM-49, Table 7) of 16 µg/mL. For the same compound, the MIC (Bifidobacterium longum; Table 1) was 16 µg/mL, the MIC (Bifidobacterium longum; Table 7) was 16 µg/mL and the IC50 (HeLa cells) was 179 ± 4 µg/mL. It also gave an IC50 (HeLa cells; Table 6) of 179 µg/mL, an MIC (Bacteroides fragilis; Table 1) of 2 µg/mL and an MIC (Bacteroides fragilis; Table 7) of 4 µg/mL. It also gave an MIC (Lactobacillus reuteri; Lactobacillus reuteri strain HM-102, Table 7) of 4 µg/mL, an MIC (Lactobacillus reuteri; Limosilactobacillus reuteri, Lactobacillus reuter strain HM-102, Table 1, read-out: MIC) of 4 µg/mL and an MIC (Eubacterium sp.; Table 1) of 8 µg/mL. It also gave an MIC (Eubacterium sp.; Table 7) of 16 µg/mL, an MIC (Corynebacterium spp.; Table 1) of 8 µg/mL and an MIC (Corynebacterium spp.; Table 7) of 8 µg/mL. The “lower activity against MRSA” value (MRSA (NRS70, NRS119); MRSA versus C. difficile, Table 1) was 128 fold, the MIC (MRSA (NRS70, NRS119); MRSA NRS70, Table 1) was 16 µg/mL and the MIC (MRSA (NRS70, NRS119); MRSA NRS70, Table 7) was 16 µg/mL. The MIC (MRSA (NRS70, NRS119); MRSA NRS119, Table 1) was 16 µg/mL, the MIC (S. aureus ATCC29213; MSSA ATCC 29213, Table 10, unit inferred, read-out: Activity (MIC) against S. aureus) was 64 µg/mL and the MIC (S. aureus ATCC29213; S. aureus ATCC29213, Table 1, read-out: MIC) was 64 µg/mL. It also gave an MIC (Fusobacterium nucleatum; Table 1) of 4 µg/mL and an MIC (Fusobacterium nucleatum; Table 7) of 4 µg/mL.
